Assay results: patent publication US20180370912A1, “COMPOUNDS AND METHODS FOR TREATING DISEASES MEDIATED BY PROTEIN DISULFIDE ISOMERASE” (Beth Israel Deaconess Medical Center, Inc., priority 2017, published 2018)
Bridge positions count the residues as written; N and C are the ends. Square brackets hold non-standard residues; d marks the D form. Peptide text beside a SMILES is read from it. * marks the point of attachment. Ileψ(thiazoline)Cys = CC[C@H](C)[C@H](N)C1=N[C@H](C(=O)*)CS1; dOrn = NCCC[C@@H](N)C(=O)O

Columns and labels:
[1] = target: T1, full-length PDI (Homo sapiens, UniProt P07237); assay: Small-angle X-ray scattering (SAXS); conditions: PDI complexed with compound; full-length oxidized PDI 40.0 Å, FIG. 5d
T1 construct: FLAG; made in house; host or cells: Escherichia coli Origami B (DE3), pET-15b
T1 sequence (P07237 18-508): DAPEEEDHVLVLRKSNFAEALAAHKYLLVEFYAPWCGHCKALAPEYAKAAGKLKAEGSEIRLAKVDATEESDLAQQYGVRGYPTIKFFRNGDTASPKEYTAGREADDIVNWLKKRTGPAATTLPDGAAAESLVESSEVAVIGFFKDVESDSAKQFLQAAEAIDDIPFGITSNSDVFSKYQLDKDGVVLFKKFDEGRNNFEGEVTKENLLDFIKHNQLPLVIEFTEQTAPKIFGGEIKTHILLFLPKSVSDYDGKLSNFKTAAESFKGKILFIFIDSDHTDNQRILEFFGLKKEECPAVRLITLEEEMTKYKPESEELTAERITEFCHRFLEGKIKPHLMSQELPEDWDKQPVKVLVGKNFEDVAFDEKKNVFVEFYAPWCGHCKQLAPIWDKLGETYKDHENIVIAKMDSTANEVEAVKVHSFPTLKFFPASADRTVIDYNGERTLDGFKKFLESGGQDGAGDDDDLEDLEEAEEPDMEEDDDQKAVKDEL
Experimental: Further purification of full-length PDI was achieved by gel filtration. PDI (1.5, 3.0 and 4.5 mg/mL) was dialyzed against 20 mM Tris, 150 mM NaCl, 5% glycerol (pH: 8.0) containing 0.5 mM bepristat 1b or 2b or DMSO control at 4° C. overnight. Evaluation by SAXS was performed on the SIBYLS beamline in the Advanced Light Source using a high throughput data collection method.

[2] = target: T2, PDI (Homo sapiens, UniProt P07237); assay: Di-eosin-GSSG disulfide reductase assay; format: biochemical; conditions: for change of apparent KM in the di-eosin-GSSG assay of PDI reductase activity / change of apparent kcat in the di-eosin-GSSG assay of PDI reductase activity: FIG. 6d
T2 construct: FLAG; made in house; host or cells: Escherichia coli Origami B (DE3), pET-15b
T2 sequence (P07237 18-508): as above
Experimental: (§1) The probe di-eosin glutathione disulfide, di-eosin-GSSG, was prepared as previously described in Raturi, A., Vacratsis, P. O., Seslija, D., Lee, L. & Mutus, B., Biochem J 391, 351-357 (2005). Reductase activity of purified thiol isomerases and PDI domains was monitored in a 96-well fluorescence plate format. PDI, AGHA-PDI, ERpS, ERp57, ERp72 and PDI domains were assayed at 50 nM in the presence or absence of the indicated small molecules, peptides or cathepsin G. The assay included 100 mM potassium phosphate (pH 7.4) containing 2 mM EDTA, 5 μM DTT and 150 nM of the di-eosin GSSG probe. The increase in fluorescence was determined for 20 minutes by excitation at 520 nm and emission at 550 nm in a Synergy Biotek 4. The reduction of 150 nM di-eosin-GSSG by 5 μM DTT in the presence or absence of mentioned small molecules, peptides or proteins served as a negative control.
Michaelis Menten analysis was assayed using PDI at 20 nM and small molecules, peptides or cathepsin G at concentrations causing maximal augmentation under similar buffer conditions as described above. 8-point response curves were generated using a range of different di-eosin-GSSG concentrations (50-5000 nM). Enzyme kinetics analysis was performed using Graphpad Prism 5.0.

[3] = target: T3, ERp5 (Homo sapiens, UniProt Q15084); assay: Insulin reductase assay, thiol isomerase selectivity; format: biochemical; conditions: 10-fold IC50, FIG. 2
T3 construct: recombinant His-tagged full-length ERp5, ERp72 and PDI domain fragments; His; made in house; host or cells: Escherichia coli Origami B (DE3), pET-15b
T3 sequence (Q15084 20-440): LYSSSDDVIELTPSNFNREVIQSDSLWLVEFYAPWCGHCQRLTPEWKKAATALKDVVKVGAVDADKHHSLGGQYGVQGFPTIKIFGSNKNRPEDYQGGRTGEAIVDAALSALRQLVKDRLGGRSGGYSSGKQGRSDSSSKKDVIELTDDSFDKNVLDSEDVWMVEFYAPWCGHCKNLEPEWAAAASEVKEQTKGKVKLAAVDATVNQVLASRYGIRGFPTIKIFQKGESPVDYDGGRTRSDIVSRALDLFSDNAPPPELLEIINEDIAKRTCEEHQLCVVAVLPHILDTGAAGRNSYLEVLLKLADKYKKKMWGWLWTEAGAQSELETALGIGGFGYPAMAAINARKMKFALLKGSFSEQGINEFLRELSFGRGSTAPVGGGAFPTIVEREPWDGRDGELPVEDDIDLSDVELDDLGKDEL
Experimental: (§2) The thiol isomerase-catalyzed reduction of insulin was assayed by measuring the increase in turbidity as detected at an optical density (OD) of 650 nm using a Spectramax M3 (Molecular Devices, Sunnyvale, Calif.). The validation assay consisted of 175 nM of PDI in a solution containing 100 mM potassium phosphate (pH 7.4) containing 0.2 mM bovine insulin, 2 mM EDTA, and 0.3 mM DTT (all purchased from Sigma Aldrich, St. Louis, Mo.), inhibitors were used at the concentrations indicated. The reaction was performed at 25° C. for one hour and thirty minutes. For assays of thiol isomerase selectivity, 11 nM PDI, ERp57 or Thioredoxin, or 33 nM ERpS were assayed in similar buffer conditions as described above and inhibitors were used at the indicated concentration. The reaction was performed at 37° C. for forty-five minutes. For assays of isolated domains studies, 400 nM protein was used, except for a, a′ and ab, in which 800 nM protein was used. The assay was performed in similar buffer conditions as described above. Bepristat 2a and N-(2,4-Dimethoxyphenyl)-N-(1-oxo-2-propyn-1-yl)-2-(2-thienyl)glycyl-glycine ethyl ester (PACMA-31) were used at a final concentration of 15 μM in these studies.

[4] = target: T4, thioredoxin (Homo sapiens, UniProt P10599); assay: as above; format: biochemical; conditions: 10-fold IC50, FIG. 2
T4 sequence (P10599 1-105): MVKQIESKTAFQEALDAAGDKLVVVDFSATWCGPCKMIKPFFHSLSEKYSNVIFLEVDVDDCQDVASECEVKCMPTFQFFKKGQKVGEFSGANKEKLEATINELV
Experimental: as §2

[5] = target: T5, ERp57 (Homo sapiens, UniProt P30101); assay: as above; format: biochemical; conditions: FIG. 2
T5 construct: FLAG; made in house; host or cells: Escherichia coli Origami B (DE3), pET-15b
T5 sequence (P30101 25-505): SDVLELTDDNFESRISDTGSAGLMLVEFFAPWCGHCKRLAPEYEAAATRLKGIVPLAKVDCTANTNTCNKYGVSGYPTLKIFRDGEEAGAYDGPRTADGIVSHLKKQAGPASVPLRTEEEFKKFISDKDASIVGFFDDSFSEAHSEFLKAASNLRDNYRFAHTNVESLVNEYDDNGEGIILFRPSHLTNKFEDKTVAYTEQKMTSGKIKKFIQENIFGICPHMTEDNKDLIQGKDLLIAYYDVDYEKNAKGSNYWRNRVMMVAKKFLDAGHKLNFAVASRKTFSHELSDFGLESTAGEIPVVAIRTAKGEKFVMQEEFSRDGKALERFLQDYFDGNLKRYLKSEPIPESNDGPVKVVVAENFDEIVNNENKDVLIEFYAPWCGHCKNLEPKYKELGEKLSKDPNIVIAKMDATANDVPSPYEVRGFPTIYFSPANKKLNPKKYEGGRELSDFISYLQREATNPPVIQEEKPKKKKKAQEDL
Experimental: as §2

[6] = target: T3, ERp5; assay: Maleimide-polyethylene glycol-2-biotin (MPB) binding; conditions: 150 μM inhibitor, FIG. 2c, FIG. 8
Experimental: (§3) Maleimide-Polyethanol glycol-2-Biotin (MPB) binding experiments were performed in a reaction volume of 37.5 μL with 5 μM of thiol isomerase or bovine serum albumin (BSA) in Tris-buffered saline (TBS), in the presence and absence of 1 mM of N-ethylmaleimide (NEM) or bacitracin, and 150 μM of the mentioned other inhibitors. The reaction mixture was incubated at 37° C. for 1 hour. Subsequently, the reaction mixtures were incubated with 25 μM of MPB. The labeling was performed for 20 minutes at 25° C. A total of 12.5 μL of 4× Laemmli Sample Buffer with 5% β-mercaptoethanol was added to each of the samples, followed by heating at 95° C. for 10 minutes. From each sample, 10 μL was loaded on a 12% SDS-PAGE gel, followed by transfer on a nitrocellulose membrane. After blocking the membrane with TBS-T containing 5% BSA for one hour, the membrane was incubated with a 1:2000 dilution of Cy5-tagged Streptavidin for an hour in the dark. Detection of the immunoblots was performed using ImageQuant LAS 4000 and analysis was performed using ImageQuant TL software.

[7] = target: T4, thioredoxin; assay: as above; conditions: 150 μM inhibitor, FIG. 2c, FIG. 8
Experimental: as §3

[8] = target: T5, ERp57; assay: as above; conditions: 150 μM inhibitor, FIG. 2c, FIG. 8
Experimental: as §3

[9] = tested on: thrombus formation; conditions: literature; cited from earlier work
[10] = target: T3, ERp5; assay: Di-eosin-GSSG disulfide reductase assay; format: biochemical
Experimental: as §1

[11] = target: T6, ERp72 (Homo sapiens, UniProt P13667); assay: Di-eosin-GSSG disulfide reductase assay; format: biochemical
T6 construct: recombinant His-tagged full-length ERp5, ERp72 and PDI domain fragments; His; made in house; host or cells: Escherichia coli Origami B (DE3), pET-15b
T6 sequence (P13667 21-645): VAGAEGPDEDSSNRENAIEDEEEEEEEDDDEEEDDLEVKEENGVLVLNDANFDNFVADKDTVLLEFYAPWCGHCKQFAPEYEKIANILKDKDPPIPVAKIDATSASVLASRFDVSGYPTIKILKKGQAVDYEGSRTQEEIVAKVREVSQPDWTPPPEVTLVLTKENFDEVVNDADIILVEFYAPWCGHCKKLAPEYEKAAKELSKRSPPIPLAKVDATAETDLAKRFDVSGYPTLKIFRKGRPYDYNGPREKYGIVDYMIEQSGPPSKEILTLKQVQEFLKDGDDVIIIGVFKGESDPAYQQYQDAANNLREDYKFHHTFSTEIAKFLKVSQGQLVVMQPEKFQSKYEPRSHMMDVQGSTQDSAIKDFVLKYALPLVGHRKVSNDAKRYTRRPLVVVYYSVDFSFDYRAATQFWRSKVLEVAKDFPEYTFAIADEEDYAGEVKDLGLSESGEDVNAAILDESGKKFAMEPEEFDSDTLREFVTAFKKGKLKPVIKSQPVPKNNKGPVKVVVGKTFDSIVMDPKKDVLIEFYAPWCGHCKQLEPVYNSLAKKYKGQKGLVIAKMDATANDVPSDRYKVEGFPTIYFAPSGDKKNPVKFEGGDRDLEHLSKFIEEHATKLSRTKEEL
Experimental: as §1

[12] = target: T5, ERp57; assay: Di-eosin-GSSG disulfide reductase assay; format: biochemical
Experimental: as §1

[13] = target: T2, PDI; conditions: cited from earlier work

**Q.** For CCOC(=O)c1c(CNCCN(CC)CC)n(-c2ccccc2)c2cc(Br)c(O)cc12 [bepristat 2b], which “gyration radius (Rg) of PDI” value [1] is on record?
**A.** 35.9 Å

**Q.** For C[C@H](N)C(=O)NCC(=O)N[C@H]1CSSC[C@@H](C(=O)O)NC(=O)[C@H](CO)NC(=O)[C@H]([C@@H](C)O)NC(=O)[C@H](Cc2ccccc2)NC(=O)[C@H]([C@@H](C)O)NC(=O)[C@H](CCCCN)NC(=O)[C@H](Cc2c[nH]c3ccccc23)NC(=O)[C@H](Cc2ccccc2)NC(=O)[C@H](Cc2ccccc2)NC(=O)[C@H](CC(N)=O)NC(=O)[C@H](CCCCN)NC1=O [somatostatin, reference compound], which “change of apparent KM in the di-eosin-GSSG assay of PDI reductase activity” value [2] is on record?
**A.** decreased the apparent KM

**Q.** With CC[C@H](C)[C@H](N)C1=N[C@H](C(=O)N[C@@H](CC(C)C)C(=O)N[C@H](CCC(=O)O)C(=O)N[C@H](C(=O)N[C@H]2CCCCNC(=O)[C@H](CC(N)=O)NC(=O)[C@@H](CC(=O)O)NC(=O)[C@H](Cc3cnc[nH]3)NC(=O)[C@@H](Cc3ccccc3)NC(=O)[C@H]([C@@H](C)CC)NC(=O)[C@@H](CCCN)NC2=O)[C@@H](C)CC)CS1 [bacitracin] ({Ileψ(thiazoline)Cys}-L[dE]IK[dOrn]I[dF]H[dD]N; lactam 4-C) as the molecule, how does the “inhibition of reductase activity of ERp5” value [3] read?
**A.** showed activity against all thiol isomerases tested

**Q.** What about the “inhibition of reductase activity of thioredoxin” value [4] of the same molecule?
**A.** showed activity against all thiol isomerases tested

**Q.** What about the “inhibition of reductase activity of ERp57” value [5] of the same molecule?
**A.** showed activity against all thiol isomerases tested

**Q.** And the “reaction of MPB with the catalytic cysteines of ERp5” value [6]?
**A.** interfered with the reaction of maleimide-polyethylene glycol-2-biotin (MPB)

**Q.** What about the “reaction of MPB with the catalytic cysteines of thioredoxin” value [7] of the same molecule?
**A.** interfered with the reaction of maleimide-polyethylene glycol-2-biotin (MPB)

**Q.** What about the “reaction of MPB with the catalytic cysteines of ERp57” value [8] of the same molecule?
**A.** interfered with the reaction of maleimide-polyethylene glycol-2-biotin (MPB)

**Q.** What about the “thrombus formation in vivo” value [9] of the same molecule?
**A.** inhibits thrombus formation in vivo

**Q.** And the “cleavage of di-eosin-GSSG probe by PDI (reductase activity at catalytic cysteines)” value [2]?
**A.** blocked PDI-mediated cleavage of di-eosin-GSSG

**Q.** Which results are given for mastoparan [reference compound]?
**A.** cleavage of di-eosin-GSSG by ERp5 (catalytic activity) [10]: inhibited the catalytic activity of ERp5 and ERp57 to varying degrees; cleavage of di-eosin-GSSG by ERp72 (catalytic activity) [11]: augmented the catalytic activity of ERp72; cleavage of di-eosin-GSSG by ERp57 (catalytic activity) [12]: inhibited the catalytic activity of ERp5 and ERp57 to varying degrees; PDI activity in RNase refolding assay [13]: inhibits PDI activity in an RNase refolding assay; cleavage of di-eosin-GSSG probe by PDI (reductase activity at catalytic cysteines) [2]: enhanced the ability of PDI to cleave di-eosin-GSSG in a dose-dependent manner; change of apparent KM in the di-eosin-GSSG assay of PDI reductase activity [2]: decreased the apparent KM; change of apparent kcat in the di-eosin-GSSG assay of PDI reductase activity [2]: None of them altered the apparent kcat

**Q.** What does the source list for cathepsin G: a protein substrate of PDI?
**A.** cleavage of di-eosin-GSSG by ERp5 (catalytic activity) [10]: inhibited the catalytic activity of ERp5 and ERp57 to varying degrees; cleavage of di-eosin-GSSG by ERp72 (catalytic activity) [11]: augmented the catalytic activity of ERp72; cleavage of di-eosin-GSSG by ERp57 (catalytic activity) [12]: inhibited the catalytic activity of ERp5 and ERp57 to varying degrees; cleavage of di-eosin-GSSG probe by PDI (reductase activity at catalytic cysteines) [2]: elicits enhanced reductase activity; change of apparent KM in the di-eosin-GSSG assay of PDI reductase activity [2]: decreased the apparent KM; change of apparent kcat in the di-eosin-GSSG assay of PDI reductase activity [2]: None of them altered the apparent kcat
